One compound from ChEMBL document CHEMBL3817811, “Protective effect of α-mangostin against iodixanol-induced apoptotic damage in LLC-PK1 cells” (Bioorg Med Chem Lett, 2016) can be followed below.

The subject of data set [1] is LLC-PK1. Kind of data set: Cytotoxicity against pig LLC-PK1 cells assessed as reduction in cell viability at 1 to 10 uM incubated for 2 hrs by MTT assay. It counts as cell-based, Sus scrofa. The following applies: llc-pk1, 2 h. Background: Tetrazolium dyes change colour on reduction, which living cells bring about.
The subject of data set [2] is LLC-PK1. Kind of data set: Cytoprotective activity against 25 mg/ml iodixanol-induced cell damage in pig LLC-PK1 cells assessed as restoration of cell viability preincubated for 2 hrs followed by iodixanol addition measured after 3 hrs by MTT assay. It counts as functional, cell-based. As to conditions: Sus scrofa.
Data set [3] deals with LLC-PK1. The data set can be described thus: Cytoprotective activity against 25 mg/ml iodixanol-induced cell damage in pig LLC-PK1 cells assessed as restoration of cell viability at 5 uM preincubated for 2 hrs followed by iodixanol addition measured after 3 hrs by MTT assay relative to control. The format is functional, Sus scrofa.
Data set [4] deals with LLC-PK1. Kind of data set: Inhibition of p38 phosphorylation in pig LLC-PK1 cells at 2.5 to 5 uM preincubated for 2 hrs followed by iodixanol addition measured after 3 hrs by western blot analysis. It counts as cell-based. As to conditions: Sus scrofa. On the technique in general: In western blotting, separated proteins are transferred to a membrane and probed.
Data set [5] has as its system LLC-PK1. The data set can be described thus: Inhibition of ERK phosphorylation in pig LLC-PK1 cells at 2.5 to 5 uM preincubated for 2 hrs followed by iodixanol addition measured after 3 hrs by western blot analysis. The format is cell-based. As to conditions: Sus scrofa.
Data set [6] concerns LLC-PK1. Kind of data set: Cytoprotective activity against 25 mg/ml iodixanol-induced cell damage in pig LLC-PK1 cells assessed as inhibition of cleaved caspase-3 expression at 2.5 to 5 uM preincubated for 2 hrs followed by iodixanol addition measured after 3 hrs by western blot analysis. The format is functional, cell-based. The following applies: Sus scrofa.
Data set [7] deals with LLC-PK1. The data set can be described thus: Cytoprotective activity against 25 mg/ml iodixanol-induced cell damage in pig LLC-PK1 cells assessed as inhibition of caspase-3 enzyme activity using DEVD-pNA substrate at 2.5 to 5 uM preincubated for 2 hrs followed by iodixanol addition and subsequent incubation for 3 hrs followed by substrate addition measured after 1 hr by microplate reader analysis. The format is functional, cell-based. The following applies: Sus scrofa.

The test system of data set [8] is LLC-PK1. Kind of data set: Inhibition of JNK phosphorylation in pig LLC-PK1 cells at 2.5 to 5 uM preincubated for 2 hrs followed by iodixanol addition measured after 3 hrs by western blot analysis. It counts as cell-based. The following applies: Sus scrofa.
Data set [9] deals with LLC-PK1. Kind of data set: Cytoprotective activity against 25 mg/ml iodixanol-induced apoptosis in pig LLC-PK1 cells assessed as reduction in dead cells preincubated for 2 hrs followed by iodixanol addition measured after 3 hrs by annexin V Alexa Fluor 488/propidium iodide staining based cytometry. The following applies: Sus scrofa. The format is functional, cell-based.

The source made the active and inactive calls. No cut-off for these calls is given here.

Consider `COc1c(O)cc2oc3cc(O)c(CC=C(C)C)c(O)c3c(=O)c2c1CC=C(C)C` [MANGOSTIN], for which the Activity entry in [1] is “Non-toxic”; in data set [2], “Dose-dependent effect”; in data set [3], “<=90.42%”; in [9], “Dose-dependent effect”. Besides, the inhibition entry in [4], in [5], in data set [6], in [7] and in data set [8] was “Active” in each case.
